Data from the supplement of paper PMC6045584.
± gives the standard deviation of the averaged measurements.

Tests used:
FLUOROURACIL = compound: O=c1[nH]cc(F)c(=O)[nH]1 [FLUOROURACIL]; assay: surviving fraction relative to DMSO-only wells; higher = less growth inhibition; conditions: exposure time: 5 days
Outline: (§1)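 Log-phase tumour cell lines were seeded at 250–500 cells per well in 384-well plates. After 24 hours they were exposed continuously for five days to inhibitors at 0.5, 1, 5, 10, 50, 100, 500 and 1000 nM. Viability was read by CellTiter-Glo luminescence after 10 minutes at room temperature, and surviving fraction is luminescence normalised to the median of DMSO-only wells. Each line was screened three times and kept only if replicate Pearson r >0.7 and median Z' >0.3.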

SALINOMYCIN = compound: CC[C@@H](C(=O)[C@@H](C)[C@@H](O)[C@H](C)[C@@H]1O[C@@H]([C@@H](CC)C(=O)O)CC[C@@H]1C)[C@H]1O[C@]2(C=C[C@@H](O)[C@]3(CC[C@@](C)([C@H]4CC[C@](O)(CC)[C@H](C)O4)O3)O2)[C@H](C)C[C@@H]1C [SALINOMYCIN]; assay: as above; conditions: exposure time: 5 days
Outline: as §1

Row | Test System | surviving fraction (FLUOROURACIL; 0.5 nM) | surviving fraction (FLUOROURACIL; 1 nM) | surviving fraction (FLUOROURACIL; 5 nM) | surviving fraction (FLUOROURACIL; 10 nM) | surviving fraction (FLUOROURACIL; 50 nM) | surviving fraction (FLUOROURACIL; 100 nM) | surviving fraction (FLUOROURACIL; 500 nM) | surviving fraction (FLUOROURACIL; 1000 nM) | surviving fraction (SALINOMYCIN; 0.5 nM) | surviving fraction (SALINOMYCIN; 1 nM) | surviving fraction (SALINOMYCIN; 5 nM) | surviving fraction (SALINOMYCIN; 10 nM) | surviving fraction (SALINOMYCIN; 50 nM) | surviving fraction (SALINOMYCIN; 100 nM) | surviving fraction (SALINOMYCIN; 500 nM) | surviving fraction (SALINOMYCIN; 1000 nM)
1 | NOS1 BONE | 1.01 ± 0.032 | 1.01 ± 0.14 | 1.09 ± 0.12 | 1.14 ± 0.11 | 0.91 ± 0.12 | 0.943 ± 0.073 | 0.799 ± 0.065 | 0.694 ± 0.081 | 1.01 ± 0.071 | 1.07 ± 0.15 | 1.09 ± 0.025 | 1.05 ± 0.066 | 1.06 ± 0.083 | 1.09 ± 0.062 | 0.0907 ± 0.013 | 0.0537 ± 0.007
2 | NY BONE | 0.98 ± 0.029 | 0.923 ± 0.032 | 1.03 ± 0.034 | 1.01 ± 0.028 | 1.07 ± 0.02 | 0.993 ± 0.018 | 0.934 ± 0.025 | 0.821 ± 0.014 | 0.929 ± 0.024 | 0.9297 ± 0.0087 | 0.965 ± 0.018 | 0.928 ± 0.021 | 0.851 ± 0.028 | 0.654 ± 0.0095 | 0.241 ± 0.009 | 0.136 ± 0.0072
3 | OS25HAL BONE | 1 ± 0.062 | 1.01 ± 0.056 | 0.985 ± 0.019 | 0.977 ± 0.014 | 1.05 ± 0.082 | 1.15 ± 0.014 | 0.939 ± 0.032 | 0.808 ± 0.032 | 0.952 ± 0.016 | 0.943 ± 0.012 | 0.964 ± 0.02 | 0.932 ± 0.02 | 0.979 ± 0.031 | 0.792 ± 0.017 | 0.122 ± 0.014 | 0.0527 ± 0.0015
4 | OSHN BONE | 1.01 ± 0.014 | 0.972 ± 0.029 | 1.061 ± 0.007 | 1.001 ± 0.0042 | 1.007 ± 0.0011 | 0.9777 ± 0.0071 | 0.989 ± 0.014 | 0.875 ± 0.029 | 1.02 ± 0.019 | 1.01 ± 0.011 | 1.01 ± 0.016 | 1.02 ± 0.02 | 1.01 ± 0.018 | 0.966 ± 0.013 | 0.247 ± 0.005 | 0.115 ± 0.0046
5 | PCI30 HEADNECK | 0.934 ± 0.056 | 1.06 ± 0.029 | 1.08 ± 0.058 | 1.1 ± 0.058 | 0.97 ± 0.067 | 0.981 ± 0.082 | 0.959 ± 0.06 | 0.931 ± 0.034 | 0.829 ± 0.026 | 0.895 ± 0.025 | 1.01 ± 0.07 | 0.945 ± 0.03 | 0.813 ± 0.013 | 0.64 ± 0.064 | 0.202 ± 0.005 | 0.145 ± 0.0085
6 | RDES SOFT TISSUE | 1.09 ± 0.053 | 0.968 ± 0.032 | 1.06 ± 0.047 | 0.912 ± 0.048 | 0.788 ± 0.19 | 0.632 ± 0.01 | 1.3 ± 0.11 | 1.51 ± 0.22 | 1.12 ± 0.12 | 1.21 ± 0.03 | 1.17 ± 0.2 | 1.12 ± 0.13 | 0.438 ± 0.22 | 0.0573 ± 0.0031 | 0.399 ± 0.021 | 0.218 ± 0.014
7 | S68 BREAST | 1.06 ± 0.15 | 1.14 ± 0.31 | 1.06 ± 0.29 | 1.23 ± 0.21 | 0.87 ± 0.13 | 0.749 ± 0.034 | 0.656 ± 0.16 | 0.465 ± 0.061 | 0.923 ± 0.097 | 0.998 ± 0.14 | 1.37 ± 0.22 | 1.04 ± 0.29 | 0.934 ± 0.22 | 0.731 ± 0.079 | 0.337 ± 0.099 | 0.209 ± 0.03
8 | SAOS2 BONE | 1.04 ± 0.073 | 1.05 ± 0.037 | 1.11 ± 0.046 | 1.09 ± 0.02 | 0.826 ± 0.096 | 0.8 ± 0.17 | 0.758 ± 0.11 | 0.598 ± 0.2 | 0.98 ± 0.038 | 0.902 ± 0.077 | 0.946 ± 0.073 | 0.8803 ± 0.0075 | 1.06 ± 0.097 | 1.11 ± 0.05 | 0.763 ± 0.016 | 0.488 ± 0.018
9 | SCC003 HEADNECK | 1.02 ± 0.082 | 1.05 ± 0.042 | 1.03 ± 0.024 | 0.965 ± 0.044 | 1.02 ± 0.12 | 0.881 ± 0.036 | 0.6943 ± 0.005 | 0.87 ± 0.13 | 0.904 ± 0.056 | 0.863 ± 0.098 | 0.946 ± 0.042 | 0.973 ± 0.059 | 1.04 ± 0.11 | 0.897 ± 0.05 | 0.49 ± 0.021 | 0.267 ± 0.016
10 | SCC36 HEADNECK | 0.92 ± 0.093 | 0.872 ± 0.052 | 1.06 ± 0.13 | 1.05 ± 0.031 | 0.739 ± 0.095 | 0.775 ± 0.029 | 0.624 ± 0.076 | 0.529 ± 0.047 | 0.984 ± 0.07 | 0.972 ± 0.12 | 1.094 ± 0.0015 | 0.973 ± 0.039 | 1.11 ± 0.02 | 0.925 ± 0.051 | 0.149 ± 0.011 | 0.08 ± 0.0078
11 | SCC47 HEADNECK | 1.12 ± 0.088 | 1.14 ± 0.026 | 1.22 ± 0.15 | 1.1 ± 0.043 | 1.02 ± 0.048 | 0.945 ± 0.051 | 0.854 ± 0.047 | 0.956 ± 0.057 | 0.842 ± 0.064 | 0.792 ± 0.026 | 0.977 ± 0.074 | 0.992 ± 0.044 | 1.06 ± 0.085 | 1 ± 0.12 | 0.561 ± 0.068 | 0.489 ± 0.023
12 | SCC90 HEADNECK | 0.968 ± 0.033 | 0.982 ± 0.096 | 1 ± 0.039 | 1.012 ± 0.009 | 0.928 ± 0.087 | 0.86 ± 0.1 | 0.908 ± 0.064 | 0.95 ± 0.08 | 0.897 ± 0.073 | 0.919 ± 0.035 | 1.16 ± 0.059 | 0.986 ± 0.14 | 1.17 ± 0.2 | 0.963 ± 0.057 | 0.301 ± 0.041 | 0.255 ± 0.067
13 | SG27 HEADNECK | 1.07 ± 0.029 | 1.08 ± 0.13 | 0.991 ± 0.016 | 1.08 ± 0.053 | 1.08 ± 0.087 | 1 ± 0.13 | 1.137 ± 0.0093 | 1.01 ± 0.043 | 1.03 ± 0.099 | 1.09 ± 0.17 | 0.997 ± 0.11 | 0.921 ± 0.094 | 1.12 ± 0.08 | 1.1 ± 0.074 | 0.249 ± 0.028 | 0.184 ± 0.015
14 | SG28 HEADNECK | 1.04 ± 0.056 | 1.08 ± 0.056 | 0.944 ± 0.078 | 1.06 ± 0.036 | 0.756 ± 0.013 | 0.756 ± 0.12 | 0.781 ± 0.059 | 0.693 ± 0.068 | 1.05 ± 0.098 | 1.08 ± 0.06 | 1.07 ± 0.16 | 0.835 ± 0.1 | 0.835 ± 0.077 | 0.762 ± 0.046 | 0.498 ± 0.068 | 0.323 ± 0.037
15 | SG31 HEADNECK | 1.09 ± 0.14 | 1.25 ± 0.32 | 1.05 ± 0.085 | 0.973 ± 0.11 | 0.893 ± 0.048 | 0.981 ± 0.16 | 0.903 ± 0.059 | 0.876 ± 0.054 | 1.08 ± 0.15 | 1.12 ± 0.036 | 1.07 ± 0.089 | 0.888 ± 0.097 | 0.924 ± 0.048 | 0.863 ± 0.093 | 0.413 ± 0.033 | 0.317 ± 0.047
16 | SG32 HEADNECK | 1.28 ± 0.12 | 0.974 ± 0.046 | 1.21 ± 0.34 | 0.932 ± 0.029 | 0.864 ± 0.056 | 0.716 ± 0.098 | 0.8 ± 0.095 | 0.442 ± 0.096 | 0.944 ± 0.068 | 1.13 ± 0.41 | 0.951 ± 0.13 | 0.729 ± 0.054 | 0.921 ± 0.13 | 0.636 ± 0.016 | 0.133 ± 0.01 | 0.054 ± 0.0044
